Like-named read-outs stand apart in the source and are kept apart here.
Tests used:
[1] = molecular target: T1, human Cav3.2 T-type Ca2+ channel (Homo sapiens, UniProt O95180); experiment: Inhibitory effect for intracellular calcium response via Cav3.2 T-type Ca2+ channels (FLIPR Calcium 3 Assay Kit); format: cell-based
T1 construct: expressed in transfected cells; host or cells: KJMGER8 cells (Namalwa cell-derived cell line)

[2] = test system: morphine-induced pruritus mice; experiment: Inhibitory effect for pruritus in morphine-induced pruritus mice; format: in vivo; conditions: given 30 minutes or 1 hour before intrathecal morphine, scratching counted for 30 minutes, male ddY mice
Protocol: Inhibitory Effect for Pruritus in Morphine-Induced Pruritus Mice
Morphine (1 nmol/5 μL, dissolved in physiological saline) or physiological saline was intrathecally administered between the fifth and sixth lumbar vertebrae of male ddY mice using a microsyringe fitted with a 30-gauge injection needle. Mice to which only morphine was administered were referred to as a control group, and mice to which only physiological saline was administered were referred to as a physiological saline-administered group.
The number of scratching behavior with the hind legs which began to be observed immediately after the morphine administration was measured for 30 minutes. Because mice show continuous scratching actions in each scratching behavior, a series of such actions was counted as a single scratching behavior.
Each test compound was administered 30 minutes or 1 hour before the morphine administration. The test compound was suspended in a 0.5% methylcellulose solution and was prepared plural administration solutions of different concentrations, and each of them was orally administered in a volume of 10 mL/kg.

[3] = human Cav3.2-expressing KJMGER8 cells (Namalwa-derived), calcium response induced by 5 mmol/L CaCl2, 3 μmol/L mibefradil as reference, read-out: IC50 for the human Cav3.2 T-type Ca2+ current

T1 sequence (O95180 whole entry): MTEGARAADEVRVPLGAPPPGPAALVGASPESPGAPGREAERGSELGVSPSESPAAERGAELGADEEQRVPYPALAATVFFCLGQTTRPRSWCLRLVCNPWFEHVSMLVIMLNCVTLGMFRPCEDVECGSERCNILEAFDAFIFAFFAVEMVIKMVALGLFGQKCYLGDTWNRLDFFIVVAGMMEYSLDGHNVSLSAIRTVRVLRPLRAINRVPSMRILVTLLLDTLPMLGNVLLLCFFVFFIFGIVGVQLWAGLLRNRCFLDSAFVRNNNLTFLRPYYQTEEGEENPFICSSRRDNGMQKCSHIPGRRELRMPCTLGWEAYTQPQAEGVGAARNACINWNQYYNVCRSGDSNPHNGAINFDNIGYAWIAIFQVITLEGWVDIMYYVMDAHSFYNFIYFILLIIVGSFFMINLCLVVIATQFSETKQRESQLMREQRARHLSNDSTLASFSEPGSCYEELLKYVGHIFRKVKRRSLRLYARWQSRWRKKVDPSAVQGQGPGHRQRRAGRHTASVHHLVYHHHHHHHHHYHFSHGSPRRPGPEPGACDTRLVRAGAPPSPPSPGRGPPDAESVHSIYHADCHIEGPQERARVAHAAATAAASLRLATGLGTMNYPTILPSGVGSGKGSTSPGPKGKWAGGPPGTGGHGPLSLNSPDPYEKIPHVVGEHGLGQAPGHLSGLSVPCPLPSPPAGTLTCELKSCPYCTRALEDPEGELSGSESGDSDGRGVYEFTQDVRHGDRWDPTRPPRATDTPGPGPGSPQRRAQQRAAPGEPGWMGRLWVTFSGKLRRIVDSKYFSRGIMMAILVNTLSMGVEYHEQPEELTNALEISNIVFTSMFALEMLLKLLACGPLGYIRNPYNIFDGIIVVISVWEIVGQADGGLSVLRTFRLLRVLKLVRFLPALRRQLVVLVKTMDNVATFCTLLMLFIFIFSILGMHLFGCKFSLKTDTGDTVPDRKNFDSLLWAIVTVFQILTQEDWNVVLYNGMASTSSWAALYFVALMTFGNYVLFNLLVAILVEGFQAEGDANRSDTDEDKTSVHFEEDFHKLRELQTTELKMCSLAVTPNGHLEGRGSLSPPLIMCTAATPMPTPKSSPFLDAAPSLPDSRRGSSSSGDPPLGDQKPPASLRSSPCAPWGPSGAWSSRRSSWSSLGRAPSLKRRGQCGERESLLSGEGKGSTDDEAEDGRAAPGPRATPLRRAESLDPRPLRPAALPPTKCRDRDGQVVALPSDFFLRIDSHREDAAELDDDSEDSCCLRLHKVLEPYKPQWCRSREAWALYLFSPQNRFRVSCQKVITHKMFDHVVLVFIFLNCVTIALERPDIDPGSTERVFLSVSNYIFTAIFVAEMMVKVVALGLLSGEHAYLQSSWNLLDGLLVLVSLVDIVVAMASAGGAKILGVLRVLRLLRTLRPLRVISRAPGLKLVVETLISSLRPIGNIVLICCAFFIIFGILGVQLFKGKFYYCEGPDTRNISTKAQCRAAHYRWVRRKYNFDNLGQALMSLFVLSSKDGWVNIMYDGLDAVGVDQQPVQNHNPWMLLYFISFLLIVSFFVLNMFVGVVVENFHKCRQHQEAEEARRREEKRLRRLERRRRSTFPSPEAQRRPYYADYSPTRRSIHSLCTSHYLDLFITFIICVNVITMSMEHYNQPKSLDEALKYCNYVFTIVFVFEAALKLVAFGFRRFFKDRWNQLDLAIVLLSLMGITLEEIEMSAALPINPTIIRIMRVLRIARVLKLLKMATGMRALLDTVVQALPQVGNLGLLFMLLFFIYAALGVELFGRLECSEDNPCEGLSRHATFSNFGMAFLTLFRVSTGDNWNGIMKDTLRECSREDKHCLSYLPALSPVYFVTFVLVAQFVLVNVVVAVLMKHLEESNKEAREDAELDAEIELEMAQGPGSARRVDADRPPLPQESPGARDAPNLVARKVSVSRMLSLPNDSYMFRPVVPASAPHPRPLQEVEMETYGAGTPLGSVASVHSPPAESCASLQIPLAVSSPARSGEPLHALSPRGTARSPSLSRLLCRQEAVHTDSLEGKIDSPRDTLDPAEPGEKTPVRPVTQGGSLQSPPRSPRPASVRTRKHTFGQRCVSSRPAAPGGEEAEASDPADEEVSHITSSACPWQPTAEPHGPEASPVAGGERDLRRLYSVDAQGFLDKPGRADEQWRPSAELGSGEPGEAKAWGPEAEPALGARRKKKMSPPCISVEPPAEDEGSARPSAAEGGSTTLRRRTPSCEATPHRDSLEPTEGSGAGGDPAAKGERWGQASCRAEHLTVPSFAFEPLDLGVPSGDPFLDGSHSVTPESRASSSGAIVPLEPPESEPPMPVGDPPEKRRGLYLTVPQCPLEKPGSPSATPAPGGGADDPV

SMILES | IC50 [1] | inhibition of the increase of the scratching behavior in morphine-induced pruritus mice ([2]; oral dose of 10 mg/kg or less) | IC50 [1, 3] | inhibition of the increase of the scratching behavior in morphine-induced pruritus mice ([2]; oral dose of 30 mg/kg or less)
CC(C)(CNC(=O)c1cc(Cl)n2c(CC3CCC(F)(F)CC3)c(C(F)(F)F)nc2c1)S(C)(=O)=O [Compound 197, 5-Chloro-3-[(4,4-difluorocyclohexyl)methyl]-N-[2-methyl-2-(methylsulfonyl)propyl]-2-(trifluoromethyl)imidazo[1,2-a]pyridine-7-carboxamide] | ≤ 100 nM | inhibited the increase of the scratching behavior |  | 
Cc1cc(C(=O)NC2CCOCC2)cc2nc(C(F)(F)F)c(Cc3ccc(Cl)cc3)n12 [Compound 208, 3-(4-Chlorobenzyl)-5-methyl-N-(tetrahydro-2H-pyran-4-yl)-2-(trifluoromethyl)imidazo[1,2-a]pyridine-7-carboxamide] | ≤ 100 nM | inhibited the increase of the scratching behavior |  | 
N#Cc1cc(C(=O)NCC2CC2)cc2nc(C(F)(F)F)c(CC3CCC(F)(F)CC3)n12 [Compound 53, 5-Cyano-N-(cyclopropylmethyl)-3-[(4,4-difluorocyclohexyl)methyl]-2-(trifluoromethyl)imidazo[1,2-a]pyridine-7-carboxamide] |  |  | ≤ 100 nM | inhibited the increase of the scratching behavior
N#Cc1cc(C(=O)N[C@H]2C[C@@H]3CC[C@H]2O3)cc2nc(C(F)(F)F)c(CC3CCC(F)(F)CC3)n12 [Compound 178, N-[(1R,2S,4S)-7-Oxabicyclo[2.2.1]heptan-2-yl]-5-cyano-3-[(4,4-difluorocyclohexyl)methyl]-2-(trifluoromethyl)imidazo[1,2-a]pyridine-7-carboxamide] |  | inhibited the increase of the scratching behavior | ≤ 100 nM | 
N#CC1(CNC(=O)c2cc(Cl)n3c(CC4CCC(F)(F)CC4)c(C(F)(F)F)nc3c2)CC1 [Compound 176, 5-Chloro-N-[(1-cyanocyclopropyl)methyl]-3-[(4,4-difluorocyclohexyl)methyl]-2-(trifluoromethyl)imidazo[1,2-a]pyridine-7-carboxamide] |  | inhibited the increase of the scratching behavior | ≤ 100 nM | 
CN(C)CC(C)(C)CNC(=O)c1cc(C#N)n2c(CC3CCC(F)(F)CC3)c(C(F)(F)F)nc2c1 [Compound 182, 5-Cyano-3-[(4,4-difluorocyclohexyl)methyl]-N-[3-(dimethylamino)-2,2-dimethylpropyl]-2-(trifluoromethyl)imidazo[1,2-a]pyridine-7-carboxamide] |  | inhibited the increase of the scratching behavior | ≤ 100 nM | 
O=C(NC1CCOCC1)c1cc2nc(C(F)(F)F)c(CC3CCC(F)(F)CC3)n2c(Cl)c1Cl [Compound 193] |  | inhibited the increase of the scratching behavior |  | 
CC(C)c1nc2cc(C(=O)N[C@H]3C[C@@H]4CC[C@H]3O4)cc(C#N)n2c1CC1CCC(F)(F)CC1 [Compound 180, N-[(1R,2S,4S)-7-Oxabicyclo[2.2.1]heptan-2-yl]-5-cyano-3-[(4,4-difluorocyclohexyl)methyl]-2-isopropylimidazo[1,2-a]pyridine-7-carboxamide] | ≤ 100 nM | inhibited the increase of the scratching behavior |  | 
COC(C)(C)CNC(=O)c1cc(C#N)n2c(CC3CCC(F)(F)CC3)c(C(F)(F)F)nc2c1 [Compound 55, 5-Cyano-3-[(4,4-difluorocyclohexyl)methyl]-N-(2-methoxy-2-methylpropyl)-2-(trifluoromethyl)imidazo[1,2-a]pyridine-7-carboxamide] | ≤ 100 nM |  |  | inhibited the increase of the scratching behavior
CC(F)(F)c1nc2cc(C(=O)NC3CCC(F)(F)CC3)c(Cl)cn2c1CC1CCC(F)(F)CC1 [Compound 15, 6-Chloro-N-(4,4-difluorocyclohexyl)-3-[(4,4-difluorocyclohexyl)methyl]-2-(1,1-difluoroethyl)imidazo[1,2-a]pyridine-7-carboxamide] | ≤ 100 nM |  |  | inhibited the increase of the scratching behavior
[2H]C([2H])([2H])OC(C)(C)CNC(=O)c1cc(C#N)n2c(CC3CCC(F)(F)CC3)c(C(F)(F)F)nc2c1 [Compound 186, 5-Cyano-3-[(4,4-difluorocyclohexyl)methyl]-N-(2-methoxy-d3-2-methylpropyl)-2-(trifluoromethyl)imidazo[1,2-a]pyridine-7-carboxamide] | ≤ 100 nM | inhibited the increase of the scratching behavior |  | 
Cc1c(C(=O)NC2CCOCC2)cc2nc(C(F)(F)F)c(CC3CCC(F)(F)CC3)n2c1C#N [Compound 181, 5-Cyano-3-[(4,4-difluorocyclohexyl)methyl]-6-methyl-N-(tetrahydro-2H-pyran-4-yl)-2-(trifluoromethyl)imidazo[1,2-a]pyridine-7-carboxamide] |  | inhibited the increase of the scratching behavior | ≤ 100 nM | 
CC(F)(F)c1nc2cc(C(=O)NC3CCOCC3)cc(C=O)n2c1CC1CCC(F)(F)CC1 [Compound 158, 3-[(4,4-Difluorocyclohexyl)methyl]-2-(1,1-difluoroethyl)-5-formyl-N-(tetrahydro-2H-pyran-4-yl)imidazo[1,2-a]pyridine-7-carboxamide] | ≤ 100 nM |  |  | 
CC1(C)CC(NC(=O)c2cc(C#N)n3c(CC4CCC(F)(F)CC4)c(C(F)(F)F)nc3c2)CCO1 (stereo not drawn) [Compound 57, 5-Cyano-3-[(4,4-difluorocyclohexyl)methyl]-N-(2,2-dimethyltetrahydro-2H-pyran-4-yl)-2-(trifluoromethyl)imidazo[1,2-a]pyridine-7-carboxamide] | ≤ 100 nM |  |  | 
O=C(NC1CC2(COC2)C1)c1cc(Cl)n2c(CC3CCC(F)(F)CC3)c(C(F)(F)F)nc2c1 [Compound 129, 5-Chloro-3-[(4,4-difluorocyclohexyl)methyl]-N-(2-oxaspiro[3.3]heptan-6-yl)-2-(trifluoromethyl)imidazo[1,2-a]pyridine-7-carboxamide] |  |  |  | inhibited the increase of the scratching behavior
N#Cc1cc(C(=O)NC2COC2)cc2nc(C(F)(F)F)c(CC3CCC(F)(F)CC3)n12 [Compound 60] |  |  | ≤ 100 nM | 
Cc1cc(C(O)C(O)C2CCOCC2)cc2nc(C(F)(F)F)c(CC3CCC(F)(F)CC3)n12 (stereo not drawn) [Compound 82, 1-{3-[(4,4-Difluorocyclohexyl)methyl]-5-methyl-2-(trifluoromethyl)imidazo[1,2-a]pyridin-7-yl}-2-(tetrahydro-2H-pyran-4-yl)ethane-1,2-diol] | ≤ 100 nM |  |  | 
Cc1c(C(=O)NC2CCOCC2)cc2nc(C(F)(F)F)c(CC3CCC(F)(F)CC3)n2c1Cl [Compound 195, 5-Chloro-3-[(4,4-difluorocyclohexyl)methyl]-6-methyl-N-(tetrahydro-2H-pyran-4-yl)-2-(trifluoromethyl)imidazo[1,2-a]pyridine-7-carboxamide] | ≤ 100 nM |  |  | 
O=Cc1cc(C(=O)NC2CCOCC2)cc2nc(C(F)(F)F)c(CC3CCC(F)(F)CC3)n12 [Compound 45, 3-[(4,4-Difluorocyclohexyl)methyl]-5-formyl-N-(tetrahydro-2H-pyran-4-yl)-2-(trifluoromethyl)imidazo[1,2-a]pyridine-7-carboxamide] | ≤ 100 nM |  |  | 
Cc1cc(NC(=O)c2cc(C#N)n3c(CC4CCC(F)(F)CC4)c(C(F)(F)F)nc3c2)on1 [Compound 138, 5-Cyano-3-[(4,4-difluorocyclohexyl)methyl]-N-(3-methylisoxazol-5-yl)-2-(trifluoromethyl)imidazo[1,2-a]pyridine-7-carboxamide] |  |  | ≤ 100 nM | 
O=C(NC1CCOCC1)c1cc(O)n2c(CC3CCC(F)(F)CC3)c(C(F)(F)F)nc2c1 [Compound 49, 3-[(4,4-Difluorocyclohexyl)methyl]-5-hydroxy-N-(tetrahydro-2H-pyran-4-yl)-2-(trifluoromethyl)imidazo[1,2-a]pyridine-7-carboxamide] | ≤ 100 nM |  |  | 
O=C(NC1CCOCC1)c1cc(C(F)F)n2c(CC3CCC(F)(F)CC3)c(C(F)(F)F)nc2c1 [Compound 48, 3-[(4,4-Difluorocyclohexyl)methyl]-5-(difluoromethyl)-N-(tetrahydro-2H-pyran-4-yl)-2-(trifluoromethyl)imidazo[1,2-a]pyridine-7-carboxamide] | ≤ 100 nM |  |  | 
CCOC(C)(C)c1nc2cc(C(=O)NC3CCOCC3)cc(C)n2c1CC1CCC(F)(F)CC1 [Compound 1, 3-[(4,4-Difluorocyclohexyl)methyl]-2-(2-ethoxypropan-2-yl)-5-methyl-N-(tetrahydro-2H-pyran-4-yl)imidazo[1,2-a]pyridine-7-carboxamide] | ≤ 100 nM |  |  | 
N#Cc1cc(C(=O)NOC2CCOCC2)cc2nc(C(F)(F)F)c(CC3CCC(F)(F)CC3)n12 [Compound 65] | ≤ 100 nM |  |  | 
N#Cc1cc(C(=O)Nc2ccccc2N)cc2nc(C(F)(F)F)c(CC3CCC(F)(F)CC3)n12 [Compound 52, N-(2-Aminophenyl)-5-cyano-3-[(4,4-difluorocyclohexyl)methyl]-2-(trifluoromethyl)imidazo[1,2-a]pyridine-7-carboxamide] | ≤ 100 nM |  |  | 
